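48-hour exposure; five concentrations; linearly interpolated endpoints. TGI: total growth inhibition.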
Columns and labels:
Assay in all cases: growth of human tumour cells (NCI), 48 h
COLO 205 colon = test system: COLO 205 colon
HOP-92 NSCLC = test system: HOP-92 NSCLC
M14 melanoma = test system: M14 melanoma
MALME-3M melanoma = test system: MALME-3M melanoma
MCF7 breast = test system: MCF7 breast
NCI/ADR-RES ovarian = test system: NCI/ADR-RES ovarian
SF-539 CNS = test system: SF-539 CNS
SW-620 colon = test system: SW-620 colon
UACC-62 melanoma = test system: UACC-62 melanoma
MOLT-4 leukemia = test system: MOLT-4 leukemia

Row | SMILES | TGI (COLO 205 colon) [µM] | TGI (HOP-92 NSCLC) [µM] | TGI (M14 melanoma) [µM] | TGI (MALME-3M melanoma) [µM] | TGI (MCF7 breast) [µM] | TGI (NCI/ADR-RES ovarian) [µM] | TGI (SF-539 CNS) [µM] | TGI (SW-620 colon) [µM] | TGI (UACC-62 melanoma) [µM] | TGI (MOLT-4 leukemia) [µM]
1 | CCOC1OC(CO)C(O)CC1n1ccc(=O)[nH]c1=O (stereo not drawn) | > 100 | > 100 | > 100 | > 100 | > 100 | > 100 | > 100 | > 100 | > 100 | 
2 | CC1(C)OP(=O)(c2ccccc2)C=C1Sc1ccc([N+](=O)[O-])cc1[N+](=O)[O-] (stereo not drawn) | > 100 | > 100 | > 100 | > 100 | > 100 | > 100 | > 100 | > 100 | > 100 | 
3 | COc1ccccc1NC(=O)C1=C(C)NC(C)=C(C(=O)Nc2ccccc2OC)C1c1ccccc1[N+](=O)[O-] | 31.6 | 59.5 | 30 | 36.2 |  |  | 37 |  | 54.1 | 49.5
4 | Cn1c(=O)c2[nH]c(N=O)nc2n(C)c1=O | > 100 |  | > 100 | > 100 | > 100 | > 100 | > 100 | > 100 | > 100 | > 100
5 | CC(C)OC(=O)c1ccc(NCc2cc(O)ccc2O)cc1 | 9.48 | 5.03 | 22.4 | 5.2 | 18.9 |  | 3.34 | 17.7 | 30.9 | 10.3
6 | COc1ccc2[nH]c3c(c2c1)[C@H](c1ccccc1)C[C@@H]1C(=O)N(c2ccccc2)C(=O)[C@H]31 | > 100 | 76.3 | > 100 | > 100 |  |  | > 100 | 49.7 | > 100 | 31.5
7 | Cc1ccc(C(=O)CC2(O)C(=O)Nc3c(C)cc(Cl)cc32)cc1 (stereo not drawn) | > 100 | > 100 | > 100 | > 100 |  |  |  | > 100 |  | > 100
8 | CO/C(N)=C(\C#N)N=Cc1ccc2ccccc2c1 | 51.8 | > 100 |  | > 100 |  | > 100 |  | > 100 | > 100 | > 100
9 | CC1=CC2C(C=C1)S(=O)(=O)N1CC21c1ccccc1 (stereo not drawn) | > 100 | > 100 | > 100 | > 100 |  |  | > 100 | > 100 | > 100 | 
10 | CSc1ncnc2c1cnn2Cc1cn(COCCO)nn1 | > 100 | > 100 | > 100 | > 100 | > 100 | > 100 | > 100 | > 100 | > 100 | 
11 | CSc1ncnc2c1cnn2Cc1cnnn1COCC(O)CO (stereo not drawn) | > 100 |  | > 100 |  | > 100 | > 100 | > 100 | > 100 | > 100 | > 100
12 | O=C/C(=C1/C=Cc2cc([N+](=O)[O-])ccc2S1)c1ccccc1 | > 100 | > 100 | > 100 | > 100 | > 100 | > 100 | > 100 |  |  | > 100
13 | N#CC(NNC(=O)Cc1ccccc1)c1cccc(O)c1 (stereo not drawn) | > 100 | > 100 | > 100 | > 100 |  |  | > 100 | > 100 | > 100 | > 100
14 | COc1nc(N=P(c2ccccc2)(c2ccccc2)c2ccccc2)cc(=O)n1C | > 100 | > 100 | > 100 |  | > 100 | > 100 | > 100 | > 100 | > 100 | > 100
15 | CCOC(=O)c1c2ccc(/C=C/c3ccccn3)ccc-2c(C(=O)OCC)c1N | > 100 | > 100 | > 100 | > 100 |  |  | > 100 | > 100 | > 100 | > 100
16 | O=Cc1c[nH]c2c(=O)[nH]cnc12 | > 100 | > 100 | > 100 | > 100 |  |  |  | > 100 | > 100 | > 100
17 | Cc1cc2ncn(-c3nc4ccccc4nc3C(C#N)S(C)(=O)=O)c2cc1C (stereo not drawn) | > 100 |  | > 100 | > 100 |  |  | > 100 | > 100 | > 100 | > 100
18 | O=C(O)c1nc2ccccc2nc1Nc1ccc(Cl)c(Cl)c1 | 82.6 | 59 | 82 | > 100 |  | > 100 | 43.7 | > 100 |  | > 100
19 | O[C@]12C=C(c3nccc4c3[nH]c3ccccc34)[C@@H]3CCN(CCCC/C=C\CC1)C[C@@]31CC3/C=C\CCCCN3[C@H]12 (stereo partly drawn) | 1.13 | 0.741 | 0.896 | 1.71 | 1.83 | 4.16 | 4.6 | 4.65 | 0.159 | 
20 | Nc1nc(NNc2cccc(F)c2)cc(=O)[nH]1 | 54.3 |  | > 100 | > 100 | 89.1 | > 100 | > 100 | > 100 |  | > 100
21 | Nc1nc2c(N)cc(C(F)(F)F)cc2nc1-c1ccccc1 | > 100 | > 100 | > 100 | > 100 |  |  | > 100 | > 100 | > 100 | > 100
22 | CSc1nc(=S)[nH]c2c1c(C)nn2-c1ccccc1 | 56.5 | 35.7 | > 100 | 41.5 | 46.1 |  | 98.2 | > 100 | 35.3 | 45.3
23 | O=c1[nH]nc(Cc2ccccc2)n1/N=C/c1cccs1 | > 100 |  | > 100 | > 100 | > 100 | > 100 | > 100 | > 100 | > 100 | > 100
24 | CC(=O)OI1NC(=O)c2ccccc21 | > 100 | > 100 | > 100 | > 100 | > 100 | > 100 |  | > 100 | > 100 | > 100
25 | COC(=O)c1ccc2c(c1)CC1(C2)Cc2cc3c(cc2C1)CCC3 |  | > 100 | > 100 | > 100 | > 100 | > 100 | > 100 | > 100 |  | > 100
